Results taken from patent publication US20250066348A1, “SMALL MOLECULE INHIBITORS OF UBIQUITIN SPECIFIC PROTEASE 1 (USP1) AND USES THEREOF” (INSILICO MEDICINE IP LIMITED, priority 2021, published 2025).

Key:
[1] = biological target: T1, Human recombinant USP1/UAF1 (Homo sapiens, UniProt O94782); assay: Enzymatic assay, USP1/UAF1 with Ubiquitin Rhodamine 110; assay type: biochemical; conditions: 2 nM USP1/UAF1, 500 nM Ubiquitin Rhodamine 110, HEPES buffer pH 8.0, 15 minutes preincubation at RT
T1 construct: purchased R&D E-568-050; host or cells: baculovirus infected Sf21 cells
T1 sequence (O94782 whole entry): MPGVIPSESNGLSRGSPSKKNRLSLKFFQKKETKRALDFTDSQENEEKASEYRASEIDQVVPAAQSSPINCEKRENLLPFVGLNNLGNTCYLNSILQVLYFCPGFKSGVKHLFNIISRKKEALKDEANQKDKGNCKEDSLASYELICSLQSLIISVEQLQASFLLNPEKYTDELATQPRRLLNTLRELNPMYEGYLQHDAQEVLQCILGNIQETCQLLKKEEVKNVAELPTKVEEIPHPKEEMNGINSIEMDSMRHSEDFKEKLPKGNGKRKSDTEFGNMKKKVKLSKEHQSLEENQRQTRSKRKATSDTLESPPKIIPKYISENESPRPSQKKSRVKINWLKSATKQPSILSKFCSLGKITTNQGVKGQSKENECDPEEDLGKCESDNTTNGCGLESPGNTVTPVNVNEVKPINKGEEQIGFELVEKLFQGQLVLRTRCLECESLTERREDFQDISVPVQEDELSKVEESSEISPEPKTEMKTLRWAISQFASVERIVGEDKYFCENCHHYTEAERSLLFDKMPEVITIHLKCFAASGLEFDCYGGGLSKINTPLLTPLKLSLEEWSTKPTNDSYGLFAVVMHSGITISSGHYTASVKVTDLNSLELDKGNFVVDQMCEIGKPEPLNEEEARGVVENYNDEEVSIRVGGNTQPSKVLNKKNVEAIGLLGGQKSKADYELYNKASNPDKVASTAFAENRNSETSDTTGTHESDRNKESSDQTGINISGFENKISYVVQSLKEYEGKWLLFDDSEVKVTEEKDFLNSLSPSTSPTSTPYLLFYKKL
T1 sequence (Q8TAF3 whole entry partner): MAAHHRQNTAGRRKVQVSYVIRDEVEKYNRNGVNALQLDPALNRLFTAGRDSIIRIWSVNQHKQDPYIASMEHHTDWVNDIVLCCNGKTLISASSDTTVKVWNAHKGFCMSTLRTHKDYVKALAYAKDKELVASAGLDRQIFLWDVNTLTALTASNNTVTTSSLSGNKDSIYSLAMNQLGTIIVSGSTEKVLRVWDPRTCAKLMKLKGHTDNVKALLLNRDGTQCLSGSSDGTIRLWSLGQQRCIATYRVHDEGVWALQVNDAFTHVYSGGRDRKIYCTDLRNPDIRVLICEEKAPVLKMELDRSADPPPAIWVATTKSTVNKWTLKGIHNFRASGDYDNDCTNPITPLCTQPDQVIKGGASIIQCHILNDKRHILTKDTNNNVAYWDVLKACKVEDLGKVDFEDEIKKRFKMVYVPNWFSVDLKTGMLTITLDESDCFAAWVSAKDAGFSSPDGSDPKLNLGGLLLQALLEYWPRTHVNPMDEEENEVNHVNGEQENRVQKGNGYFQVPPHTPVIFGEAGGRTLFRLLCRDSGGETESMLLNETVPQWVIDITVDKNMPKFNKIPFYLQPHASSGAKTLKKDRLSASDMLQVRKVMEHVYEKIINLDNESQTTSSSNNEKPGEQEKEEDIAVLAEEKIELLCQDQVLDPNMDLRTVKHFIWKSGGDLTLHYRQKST
Protocol: Human recombinant USP1/UAF1 expressed in baculovirus infected Sf21 cells were used (R&D, E-568-050). Test compound and/or vehicle was incubated with 2 nM of USP1/UAF1 in modified HEPES buffer pH 8.0 for 15 minutes at RT. The reaction was initiated by addition of 500 nM of Ubiquitin Rhodamine 110 (R&D, U-555-050) for kinetic reading. Slope change of fluorescence intensity was read spectrofluorimetrically at 485 nm/535 nm. Dose response of test compounds or reference compound ML-323 was analyzed by nonlinear regression of GraphPad prism software.

[2] = system: MDA-MB-436 cells; assay: MDA-MB-436 breast cancer cell proliferation assay (CellTiter-Glo); assay type: cell-based; conditions: Homo sapiens, 168 h, 7 days
Protocol: MDA-MB-436 cells were grown in Leibovitz's L-15 medium with 10 μg/ml insulin, 16 μg/ml glutathione, 10% FBS. Cells were passaged at subconfluence after trypsinization and maintained in incubators at 37° C. in a humidified atmosphere with 5% CO2.
Cell proliferation was determined using CellTiter-Glo® Luminescent Cell Viability Assay (Promega, #G7573). MDA-MB-436 cells were seeded in 384-well plates and allowed to attach for 24 h. Compounds were added into 384-well plate by ECHO, and incubated at 37 C° in a humidified atmosphere with 5% CO2. After 7 days, CellTiter-Glo was added into 384 well plates, contents were mixed on an orbital shaker at […] for 2 min before centrifuging the plate for 2 min at 1000 rpm. After incubation at RT for 30 min, luminescence was read on envision.

| Compound | IC50 [1] [nM] | IC50 [2] [nM] |
| --- | --- | --- |
| COc1ncnc(C2CC2)c1-c1cn2c(Cc3ccc(-n4nc(C(F)(F)F)cc4C)cc3)ncc2cn1 [Example 2, 6-(4-cyclopropyl-6-methoxypyrimidin-5-yl)-3-(4-(5-methyl-3-(trifluoromethyl)-1H-pyrazol-1-yl)benzyl) imidazo[1,5-a]pyrazine] | 50 to 1000 | 50 to 1000 |
| COc1ncnc(C2CC2)c1-c1cc2c(cnn2Cc2ccc(-n3nc(C(F)(F)F)cc3C)cc2)nn1 [Example 4, 6-(4-cyclopropyl-6-methoxypyrimidin-5-yl)-1-(4-(5-methyl-3-(trifluoromethyl)-1H-pyrazol-1-yl)benzyl)-1H-pyrazolo[4,3-c]pyridazine] | 1000 to 10000 | – |
| COc1ncnc(C2CC2)c1-c1cn2c(Cc3ccc(-n4nc(C(F)(F)F)cc4C)cc3)nnc2cn1 [Example 5, 6-(4-cyclopropyl-6-methoxypyrimidin-5-yl)-3-(4-(5-methyl-3-(trifluoromethyl)-1H-pyrazol-1-yl)benzyl)-[1,2,4]triazolo[4,3-a]pyrazine] | 1000 to 10000 | > 10000 |
| COc1ncnc(C2CC2)c1-c1cnc2cnc(Cc3ccc(-n4nc(C(F)(F)F)cc4C)cc3)n2c1 [Example 6, 3-(4-cyclopropyl-6-methoxypyrimidin-5-yl)-6-(4-(5-methyl-3-(trifluoromethyl)-1H-pyrazol-1-yl)benzyl)imidazo[1,5-a]pyrimidine] | > 10000 | – |
| COc1ncnc(C2CC2)c1-c1ncc2cnn(CC34C5C6C3C3C4C5C63c3nc(C(F)(F)F)cn3C)c2n1 (stereo not drawn) [Example 10, 6-(4-cyclopropyl-6-methoxypyrimidin-5-yl)-1-((4-(1-methyl-4-(trifluoromethyl)-1H-imidazol-2-yl)cuban-1-yl)methyl)-1H-pyrazolo[3,4-d]pyrimidine] | < 50 | < 50 |
| COc1ncnc(C2CC2)c1-c1ncc2cnn(CC34C5C6C3C3C4C5C63c3nc(C(F)(F)F)cn3C(C)C)c2n1 (stereo not drawn) [Example 11, 6-(4-cyclopropyl-6-methoxypyrimidin-5-yl)-1-((4-(1-isopropyl-4-(trifluoromethyl)-1H-imidazol-2-yl)cuban-1-yl)methyl)-1H-pyrazolo[3,4-d]pyrimidine] | < 50 | < 50 |
| COc1ncnc(C2CC2)c1-c1cc2c(cn1)cnn2Cc1ccc(-n2nc(C(F)(F)F)cc2C)nc1 [Example 12, 6-(4-cyclopropyl-6-methoxypyrimidin-5-yl)-1-((6-(5-methyl-3-(trifluoromethyl)-1H-pyrazol-1-yl)pyridin-3-yl)methyl)-1H-pyrazolo[4,3-c]pyridine] | 50 to 1000 | – |

Second part, the compound after the results:

| IC50 [1] [nM] | IC50 [2] [nM] | Compound |
| --- | --- | --- |
| < 50 | 50 to 1000 | COc1ncnc(C2CC2)c1-c1cc2c(cn1)cnn2Cc1ccc(-n2nc(C(F)(F)F)cc2C)cc1 [Example 1, 6-(4-cyclopropyl-6-methoxypyrimidin-5-yl)-1-(4-(5-methyl-3-(trifluoromethyl)-1H-pyrazol-1-yl)benzyl)-1H-pyrazolo[4,3-c]pyridine] |
| 1000 to 10000 | 1000 to 10000 | COc1ncnc(C2CC2)c1-c1cnc2cnn(Cc3ccc(-n4nc(C(F)(F)F)cc4C)cc3)c2n1 [Example 3, 6-(4-cyclopropyl-6-methoxypyrimidin-5-yl)-1-(4-(5-methyl-3-(trifluoromethyl)-1H-pyrazol-1-yl)benzyl)-1H-pyrazolo[3,4-b]pyrazine] |
| 50 to 1000 | 50 to 1000 | COc1ncnc(C2CC2)c1-c1ncc2c(=O)n(C)n(Cc3ccc(-n4nc(C(F)(F)F)cc4C)cc3)c2n1 [Example 7, 6-(4-cyclopropyl-6-methoxypyrimidin-5-yl)-2-methyl-1-(4-(5-methyl-3-(trifluoromethyl)-1H-pyrazol-1-yl)benzyl)-1,2-dihydro-3H-pyrazolo[3,4-d]pyrimidin-3-one] |
| 50 to 1000 | 50 to 1000 | COc1ncnc(C2CC2)c1-c1ncc2oc(=O)n(Cc3ccc(-n4nc(C(F)(F)F)cc4C)cc3)c2n1 [Example 8, 5-(4-cyclopropyl-6-methoxypyrimidin-5-yl)-3-(4-(5-methyl-3-(trifluoromethyl)-1H-pyrazol-1-yl)benzyl) oxazolo[4,5-d]pyrimidin-2 (3H)-one] |
| 50 to 1000 | 50 to 1000 | COc1ncnc(C2CC2)c1-c1ncc2[nH]c(=S)n(Cc3ccc(-n4nc(C(F)(F)F)cc4C)cc3)c2n1 [Example 9, 2-(4-cyclopropyl-6-methoxypyrimidin-5-yl)-9-(4-(5-methyl-3-(trifluoromethyl)-1H-pyrazol-1-yl)benzyl)-7,9-dihydro-8H-purine-8-thione] |
